According to patent US20090286781A1, “Use of Suluble Guanylate Cyclase Acitvators for Treating Acute and Chronic Lung Diseases” (Bayer HealtHCare AG, priority 2005, published 2009):

System: male C57B1/6J mice subjected to hypoxia (10% O2)
Test: Hypoxia model of experimental pulmonary hypertension
Assay type: in vivo
Details: hypoxia (10% O2) for 7 or 10 days; 300 ppm of compound in the feed for 10 days; lung histology; compared with the hypoxia control animals (FIG. 1)
Excerpt: The method for investigating the effect of the compound (IV) of the invention in the model of experimental pulmonary hypertension was as described (Dumitrascu R, Weissmann N, Ghofrani H A, Beuerlein K, Schmidt H H H W, Stasch J P, Gnoth M J, Seeger W, Grimminger F, Schermuly R T, Activation of soluble guanylate cyclase reverses lung vascular remodeling and pulmonary hypertension evoked by hypoxia in mice, Circulation 2006, 113: 286-295). For this purpose, male C57B1/6J mice (Charles River Laboratories) were subjected to hypoxia (10% O2) for 7 or 10 days. The control animals were kept in a normal oxygen environment. The mice were treated for 10 days with 300 ppm of compound (IV) in the feed. At the end of the test, the mice were sacrificed and the lungs were isolated. Histological workup and evaluation was carried out as in the abovementioned publication.

COC(=O)N(C)c1c(N)nc(-c2nn(Cc3ccccc3F)c3ncccc23)nc1N [Compound (IV)]
non-muscularized and partly muscularized fraction of the pulmonary vessels: significantly reduced
